Test results published in article PMC11784026, “Phase 1 study of the safety, tolerability, and pharmacokinetics of a synthetic macrocyclic peptide antibiotic (BRII-693) in healthy adult participants” (Antimicrobial Agents and Chemotherapy, 2024).
Several values for one entry are separate records, joined by “and”; a condition that tells them apart may be missing. Equal entries are not always repeated. Where two headings read alike, the source gives them in different places. Marks after values point to notes of the source that are not given here. Where a SMILES comes first, the peptide text is derived from it. Bridges are numbered along the chain shown (N, C = ends). [ ]: non-standard residue; d: D form. The star is where a group is joined. X1 = O=C(c1ccc(Cl)cc1Cl)*; Dab = NCC[C@H](N)C(=O)O; Abu = CC[C@H](N)C(=O)O; Dap = NC[C@H](N)C(=O)O

What was measured:
[1] = Renal function: serum creatinine, RIFLE Risk criteria; format: in vivo, human (healthy adult participants); details: for Serum creatinine level: cohort 12, 150 mg q6h × 14 days
Excerpt: Safety assessments included repeated measures of laboratory testing, vital signs, ECGs, physical examinations, and adverse event (AE) monitoring and reporting conducted before, during, and after study drug administration. A >1.5× increase from baseline in creatinine was characterized as meeting the (RIFLE) “Risk” level (or Class R) criteria ([10]). Participants were confined at the clinical research unit for the duration of their study participation. For the SAD cohorts, confinement was from the day before dosing through day 3 (at least 48 hours after dosing). For the MAD cohorts, confinement was from the day before dosing through day 11 for cohorts 8 to 10 and through day 17 for cohorts 11 and 12.

[2] = SAD; for fe0–48h: % of dose in urine as unchanged drug over 48 h; for CLR: renal clearance
Experimental: During the SAD phase of the study, cohort dosing of 10, 25, 50, 100, 200, 300, and 400 mg of BRII-693 was evaluated in a sequential manner. Each of the seven SAD cohorts enrolled eight eligible participants (six active; two placebo). On day 1, participants received a single IV dose of BRII-693 or placebo as a 1-hour infusion. Participants were then discharged on day 3.
For the SAD cohorts, blood samples for the measurement of BRII-693 in plasma were obtained before dosing and at 0.5 (mid-infusion), 1 (end of infusion), 1.25, 1.5, 2, 4, 6, 8, 12, 24, 36, and 48 hours following the start of dosing infusion. Urine samples were collected for PK assessment before dosing and at the time intervals of 0–4, 4–8, 8–12, 12–24, 24–36, and 36–48 hours after the start of dosing infusion.
All blood samples were collected into EDTA-containing vials, immediately placed on ice, and centrifuged at 3,000× g for approximately 10 minutes at 4°C. Supernatant plasma was transferred to two pre-chilled cryopreservation vials (at least 1.0 mL per vial) and stored at −80°C until shipped to the analytical laboratory. Urine samples collected for each time interval were refrigerated, aliquoted, and stored at −80°C until shipped to the analytical laboratory. Plasma and urine samples were analyzed for BRII-693 concentrations using validated high-performance liquid chromatography with detection by mass spectrometry method (BioAgilytix, San Diego, CA). The assay range was 50.0–50,000 ng/mL in both plasma and urine.
Area under the concentration-time curve (AUC) from time zero to the time of the last quantifiable concentration (AUC0–last), AUC from time zero to infinity (AUC0–inf), AUC within a dosing interval of 6 hours (AUC0–6h), maximum observed concentration (Cmax), time to reach maximum concentration (Tmax), apparent terminal half-life (t1/2), total clearance (CL), volume of distribution during terminal phase (Vz), and accumulation ratio based on AUC (ARAUC) were determined for BRII-693 in plasma. Urine parameters included amount and percentage of dose recovered in urine as unchanged drug over each collection interval and cumulatively and renal clearance (CLR). PK parameters were determined using noncompartmental methods in Phoenix WinNonlin (Certara, Version 8.3).

[3] = single 1-h IV infusion 10 mg, n = 5, arithmetic mean ± SD
[4] = single 1-h IV infusion 25 mg, n = 5, arithmetic mean ± SD
[5] = single 1-h IV infusion 50 mg, n = 6, arithmetic mean ± SD
[6] = single 1-h IV infusion 100 mg, n = 6, arithmetic mean ± SD
[7] = single 1-h IV infusion 200 mg, n = 6, arithmetic mean ± SD
[8] = single 1-h IV infusion 300 mg, n = 6, arithmetic mean ± SD
[9] = single 1-h IV infusion 400 mg, n = 6, arithmetic mean ± SD

CC[C@@H]1NC(=O)[C@@H](CC(C)C)NC(=O)[C@H](CCN)NC(=O)[C@@H](NC(=O)[C@H](CN)NC(=O)[C@@H](NC(=O)[C@H](CCN)NC(=O)c2ccc(Cl)cc2Cl)[C@@H](C)O)CCNC(=O)[C@H]([C@@H](C)O)NC(=O)[C@H](CCN)NC(=O)[C@H](CCN)NC1=O [BRII-693] (X1-[Dab]T[Dap][Dab][Dab][dL][Abu][Dab][Dab]T; lactam 4-C; N-terminus assumed)
Participants with creatinine elevation (>1.5× increase from baseline, RIFLE risk class) ([1]; 150 mg q6h × 14 days): 1 of 20
Serum creatinine level after completion of therapy ([1]; 200 mg q6h × 7 days, first participant, day 11): 1.17 mg/dL
Peak serum creatinine level ([1]; 200 mg q6h × 7 days, one participant, day 10): 1.54 mg/dL
Serum creatinine level after completion of therapy ([1]; 200 mg q6h × 7 days, other participant, day 11): 1.10 mg/dL
Participants with creatinine elevation (>1.5× increase from baseline, RIFLE risk class) ([1]; 200 mg q6h × 7 days, reversible): Two of six and 2 of 6
Peak serum creatinine level ([1]; 200 mg q6h × 7 days, the other participant, day 9): 1.64 mg/dL
Serum creatinine level ([1]; one participant, day 9): 1.74 mg/dL
Serum creatinine level ([1]; one participant, day 11): 1.72 mg/dL
Serum creatinine level ([1]; one participant, day 13): 2.07 mg/dL
Serum creatinine level ([1]; same participant, unscheduled visit after day 13): 1.39 mg/dL
Participants reporting AEs (7-day MAD cohorts 8–10, after multiple dosing, all BRII-693-treated (5 of 17)): 29.4%
Participants reporting AEs (7-day MAD cohorts 8–10, after single dosing on day 1, all BRII-693-treated (3 of 17)): 17.6%
Participants who discontinued the study due to treatment-related AE (headache, moderate) (7-day MAD, 200 mg, after the single dose on day 1 (One of 6)): 16.7%
Participants reporting AEs (7-day MAD, after multiple dosing, 100 mg q6h (2 of 6)): 33.3%
Participants reporting AEs (7-day MAD, after multiple dosing, 200 mg q6h (3 of 6)): 50.0%
Participants reporting AEs (7-day MAD, after single dosing on day 1, 150 mg (1 of 5)): 20.0%
Participants reporting AEs (7-day MAD, after single dosing on day 1, 200 mg (2 of 6)): 33.3%
Participants reporting AEs (SAD phase, 100 mg (1 of 6)): 16.7%
Participants reporting AEs (SAD phase, 200 mg (1 of 6)): 16.7%
Severity of AEs (SAD phase, all AEs (five events, placebo included)): mild in severity
Participants reporting AEs (SAD phase, all BRII-693-treated participants (2 of 41)): 4.9%
Participants reporting AEs (cohort 11, 150 mg q6h × 14 days, non-Chinese (5 of 10)): 50.0%
Participants reporting AEs (cohort 12, 150 mg q6h × 14 days, Chinese (Five of the 10)): 50.0%
Overall safety and tolerability (in vivo, iv): safe and well tolerated
fe0–48h [2, 3]: 0.95 ± 0.50^b %
CLR [2, 3]: 0.036 ± 0.018^b L/h
fe0–48h [2, 4]: 5.73 ± 3.67%
CLR [2, 4]: 0.22 ± 0.12 L/h
fe0–48h [2, 5]: 21.5 ± 9.19%
CLR [2, 5]: 0.86 ± 0.33 L/h
fe0–48h [2, 6]: 40.2 ± 5.40%
CLR [2, 6]: 1.51 ± 0.31 L/h
fe0–48h [2, 7]: 47.6 ± 15.6%
CLR [2, 7]: 1.92 ± 0.80 L/h
fe0–48h [2, 8]: 57.5 ± 16.2%
CLR [2, 8]: 2.44 ± 0.50 L/h
fe0–48h [2, 9]: 68.4 ± 11.4%
CLR [2, 9]: 2.68 ± 0.42 L/h
